Source: patent US8778974B2, “Trisubstituted 1,2,4 triazoles” (Janssen Pharmaceutica NV, priority 2008, dated 2014)

How the values were obtained:
[1] = target: T1, hα7-wt nAChR-expressing cells (Homo sapiens, UniProt P36544); assay: Ca2+ flux imaging (FDSS) (Protocol B), PAM activity with choline 100 μM; type: cell-based; settings: according to Ex. D.1b; read-out: % Efficacy
T1 construct: expressed in transfected cells; host or cells: hα7-wt nAChR-expressing cells
Experimental: Ca^2+ Flux Imaging (FDSS) (Protocol B)
• a) Assay buffer • Hanks buffered saline solution (HBSS, Invitrogen, Belgium), supplemented with 10 mM HEPES (Invitrogen, Belgium), CaCl2 to a final concentration of 5 mM, 0.1% Bovine serum albumin (Sigma-Aldrich NV, Belgium). • b) Calcium-sensitive dye—Fluo-4AM • Fluo-4AM (Molecular Probes, USA) was dissolved in DMSO containing 10% Pluronic acid (Molecular Probes, USA) to give a stock solution which was diluted in assay buffer supplemented with 5 mM probenicid (Sigma, Al-drich NV, Belgium) to give a final concentration of 2 μM. • c) 384-well plates • Black 384 well plate black/clear plates, PDL pre-coated (Corning, Incorporated, USA) • d) Calcium flux measurement • A Functional drug screening system (FDSS, Hamamatsu) was used to measure intracellular free-calcium flux signals. Method
Monolayers of hα7-wt nAChR-expressing cells were grown in multi-well plates, in particular black-sided, transparent bottomed 384 well plates coated with poly-D-lysine for 24 hours prior to loading with a fluorescent calcium indicator, in a particular embodiment loading with fluo-4AM for up to 120 minutes.
PAM activity was detected in real time by applying the compounds to be tested to the loaded cells along with a α7 nicotinic receptor agonist during constant monitoring of cellular fluorescence in a FDSS. Compounds giving peak fluorescent responses greater than the response due to agonist alone, were considered to be α7 nAChR PAM's. In a particular embodiment, the α7 nicotinic receptor agonist was choline, a more particular embodiment choline applied at a sub-maximal concentration of 100 μM. In a further setting of the present invention the compounds to be tested were applied prior to the α7 nicotinic receptor agonist, in a particular embodiment up to 10 minutes prior to the agonist.
A control response to choline was calculated on each plate from the difference in peak in fluorescence in wells receiving either choline or assay buffer alone. Compounds of the present invention were tested at a concentration range from 0.01 μM to 30 μM. Compounds were considered to have an interesting activity when they potentiated the choline signal at least with 500% when tested at a concentration of 30 μM (the efficacy of 100 μM choline was defined as 100% in the absence of a PAM). The compounds also have a potentiating effect on the response to choline when measured by whole-cell patch clamp electrophysiology in GH4Cl cells stably over-expressing the human wild-type α7 receptor.

[2] = target: T2, hα7-wt nAChR-expressing GH4Cl cells (Homo sapiens, UniProt P36544); assay: Patch-clamp current recording (whole-cell), potentiation of choline 1 mM response, PAM type; type: cell-based; design: key to Pam type: Type 0 compounds minimally enhance the effect size of the current elicited by 1 mM choline.; Type 1 compounds enhance the effect size of the current elicited by 1 mM choline but minimally alter the kinetics of the receptor.; Type 2 compounds enhance the effect size of the current elicited by 1 mM choline while reducing the rate and/or the extent of desensitization.; Type 3 compounds enhance the effect size of the current elicited by 1 mM choline. When tested at higher concentrations up to 10 μM they completely inhibit desensitization, in particular a 1 mM choline application of 250 milliseconds.; Type 4 compounds allow for an initial desensitization of the receptor followed by a re-opening of the receptor during agonist application; settings: for EC50: according to Ex. D.2, "<5" = no top plateau reached at maximal concentration, read-out: Potency (pEC50) (converted); for Pam type: patch-clamp current recording, 1 mM choline
T2 construct: expressed in transfected cells
In short: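 PAM type assigned qualitatively from current size and desensitization rate/extent when compound is applied simultaneously with 1 mM choline. Recordings: hα7-wt nAChR GH4Cl cells, whole-cell patch clamp, holding −70 mV, series resistance <15 MΩ with ≥60% compensation, pH 7.3 HEPES solutions, solution switching <100 ms.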

T1 sequence (P36544 23-502): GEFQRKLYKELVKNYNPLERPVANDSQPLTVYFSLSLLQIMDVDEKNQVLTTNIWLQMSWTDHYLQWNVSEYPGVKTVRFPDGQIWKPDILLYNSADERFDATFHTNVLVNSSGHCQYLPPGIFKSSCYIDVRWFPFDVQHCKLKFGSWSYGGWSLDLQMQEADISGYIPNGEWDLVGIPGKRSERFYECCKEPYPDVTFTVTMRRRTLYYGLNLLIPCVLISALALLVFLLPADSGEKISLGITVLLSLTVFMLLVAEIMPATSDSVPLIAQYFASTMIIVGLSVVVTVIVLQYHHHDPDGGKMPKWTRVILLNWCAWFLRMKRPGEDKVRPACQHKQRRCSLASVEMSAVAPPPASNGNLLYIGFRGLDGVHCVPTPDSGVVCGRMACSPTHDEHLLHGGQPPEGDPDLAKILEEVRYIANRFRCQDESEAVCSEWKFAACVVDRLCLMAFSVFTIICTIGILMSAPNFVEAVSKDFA
T2 sequence (P36544 23-502): as above

Row | SMILES | Emax [1] | melting point | EC50 [2] | Pam type [2]
1 | C/C=C/c1nc(Nc2ccc(F)c(C(F)(F)F)c2)nn1-c1ccnc(C)c1 [E11, N-[4-Fluoro-3-(trifluoromethyl)phenyl]-1-(2-methyl-4-pyridinyl)-5-[(1E)-1-propenyl]-1H-1,2,4-triazol-3-amine] | 341% | 226.3 °C | 138 nM | –
2 | C[C@H](O)Cc1nc(Nc2ccc(F)c(F)c2)nn1-c1ccc(F)cc1 [E19] | 445% | 178 °C | 3020 nM | –
3 | CNC(=O)CCc1nc(Nc2ccc(F)c(F)c2)nn1-c1ccccc1Cl [E38] | 253% | – | 3090 nM | –
4 | CNC(=O)CCc1nc(Nc2ccc(F)c(F)c2)nn1-c1cccc(Cl)c1 [E39] | 674% | – | 2570 nM | –
5 | CNC(=O)CCc1nc(Nc2ccc(F)c(F)c2)nn1-c1ccc(Cl)cc1 [E40] | 495% | 177.3 °C | 1910 nM | –
6 | CNC(=O)CCc1nc(Nc2ccc(F)c(F)c2)nn1-c1ccc(OC(F)(F)F)cc1 [E47] | 698% | – | 1510 nM | –
7 | CC[C@@H](O)Cc1nc(Nc2cc(OC)cc(C(F)(F)F)c2)nn1-c1cc(C)nc(C)c1 [E128] | 994% | 138.8 °C | 126 nM | 4
8 | Cc1cc(-n2nc(Nc3ccc(F)c(F)c3)nc2C[C@H](C)O)cc(C)n1 [E141] | 961% | 225.7 °C | 1380 nM | 2
9 | Cc1cc(-n2nc(Nc3cccc(Cl)c3F)nc2CC(=O)NC2CC2)c(C)cn1 [E157] | 492% | 192.6 °C | 3800 nM | 2
10 | Cc1cc(-n2nc(Nc3cccc(Cl)c3F)nc2CC(=O)NCC2CC2)c(C)cn1 [E158] | 328% | – | 1380 nM | 1
11 | Cc1cc(-n2nc(Nc3cccc(Cl)c3F)nc2CC(=O)NC2CCC2)c(C)cn1 [E159] | 592% | – | 1740 nM | 1
12 | Cc1cc(-n2nc(Nc3ccc(F)c(F)c3)nc2CC(=O)NC2CCC2)c(C)cn1 [E162] | 623% | 244.1 °C | 2880 nM | 1
13 | Cc1cc(-n2nc(Nc3ccc(F)c(F)c3)nc2CC(=O)NCC2CC2)c(C)cn1 [E166] | 589% | 211.2 °C | 2340 nM | 1
14 | COc1ccc(-n2nc(Nc3cccc(OC(F)(F)F)c3)nc2CCC(=O)N(C)C)cc1 [E183] | 718% | – | 26.9 nM | 1
15 | CC[C@H](O)Cc1nc(Nc2cc(F)c(F)c(F)c2)nn1-c1ccnc(C)c1 [E187, (alphaS)-alpha-ethyl-1-(2-methyl-4-pyridinyl)-3-[(3,4,5-trifluorophenyl)amino]-1H-1,2,4-triazole-5-ethanol] | – | 177.4 °C | 224 nM | 2
16 | CC[C@H](O)Cc1nc(Nc2cc(F)c(F)c(F)c2)nn1-c1cc(C)nc(C)c1 [E188, (alphaS)-1-(2,6-dimethyl-4-pyridinyl)-alpha-ethyl-3-[(3,4,5-trifluorophenyl)amino]-1H-1,2,4-triazole-5-ethanol] | – | 176.6 °C | 224 nM | 2
17 | Cc1cc(-n2nc(Nc3ccc(F)c(F)c3F)nc2C[C@H](C)O)cc(C)n1 [E189, (alphaS)-1-(2,6-dimethyl-4-pyridinyl)-alpha-methyl-3-[(2,3,4-trifluorophenyl)amino]-1H-1,2,4-triazole-5-ethanol] | – | 138 °C | 631 nM | 2
18 | Cc1nccc(-n2nc(Nc3cccc(Cl)c3F)nc2CC(=O)NC2CCC2)c1C [E192] | 397% | 187.9 °C | 1580 nM | 1
19 | Cc1nccc(-n2nc(Nc3cccc(Cl)c3F)nc2CC(=O)NCC2CC2)c1C [E193] | 327% | – | ~3020 nM | –
20 | Cc1cc(-n2nc(Nc3cc(F)c(F)cc3F)nc2C[C@H](C)O)cc(C)n1 [E194] | – | 177.7 °C | 5010 nM | –
21 | CC[C@@H](O)Cc1nc(Nc2cc(OC)cc(C(F)(F)F)c2)nn1-c1ccc(C)nc1 [E195] | – | 151.9 °C | 3630 nM | –
22 | CC[C@H](O)Cc1nc(Nc2cccc(Cl)c2)nn1-c1ccc(C)nc1 [E196] | – | 110.4 °C | 912 nM | 2
23 | Cc1cc(-n2nc(Nc3ccc(F)c(F)c3)nc2C[C@@H](C)O)cc(C)n1 [E197] | – | 225.1 °C | 1780 nM | 2
24 | Cc1cc(-n2nc(Nc3ccc(F)c(F)c3)nc2C[C@@H](C)O)ccn1 [E198] | 808% | 210.3 °C | 1860 nM | 2

Further lines, with some results ahead:

Row | Emax [1] | melting point | SMILES | EC50 [2] | Pam type [2]
25 | – | 224.4 °C | Cc1cc(-n2nc(Nc3ccc(F)c(C(F)(F)F)c3)nc2C[C@@H](C)O)cc(C)n1 [E199] | 1070 nM | 2
26 | – | 280.9 °C | CCNC(=O)Cc1nc(Nc2ccc3c(c2)OC(F)(F)O3)nn1-c1cc(C)nc(C)c1 [E200, 3-[(2,2-difluoro-1,3-benzodioxol-5-yl)amino]-1-(2,6-dimethyl-4-pyridinyl)-N-ethyl-1H-1,2,4-triazole-5-acetamide] | 407 nM | 2
27 | – | 270.3 °C | Cc1cc(-n2nc(Nc3ccc4c(c3)OC(F)(F)O4)nc2CC(=O)NCC2CC2)cc(C)n1 [E201] | 302 nM | 2
28 | – | 133.2 °C | CC[C@H](O)Cc1nc(Nc2ccc(OC)cc2)nn1-c1ccnc(C)c1 [E202] | 2750 nM | 2
29 | – | 200.2 °C | Cc1cc(-n2nc(Nc3cc(F)c(F)c(F)c3)nc2C[C@H](C)O)ccn1 [E207] | 1320 nM | 2
30 | – | 199.6 °C | Cc1cc(-n2nc(Nc3cc(F)c(F)c(F)c3)nc2C[C@H](C)O)cc(C)n1 [E208] | 741 nM | 2
31 | – | 241.5 °C | CCNC(=O)Cc1nc(Nc2ccc(F)c(F)c2F)nn1-c1cc(C)nc(C)c1 [E210] | 417 nM | 2
32 | – | 237.3 °C | Cc1cc(-n2nc(Nc3ccc(F)c(F)c3F)nc2CC(=O)NC2CC2)cc(C)n1 [E211] | 372 nM | 2
33 | – | 249.4 °C | Cc1cc(-n2nc(Nc3ccc(F)c(F)c3F)nc2CC(=O)NC2CCC2)cc(C)n1 [E212] | 251 nM | 2
34 | 909% | 252.1 °C | Cc1cc(-n2nc(Nc3ccc(F)c(F)c3F)nc2CC(=O)NC(C)C)cc(C)n1 [E213] | 468 nM | 2
35 | 646% | – | CC[C@H](O)Cc1nc(Nc2cc(OC)cc(C(F)(F)F)c2)nn1-c1ccnc(C)c1C [E220] | 2040 nM | –
36 | 711% | – | Cc1cc(-n2nc(Nc3ccc(F)c(C(F)(F)F)c3)nc2CC(=O)NC2CC2)cc(C)n1 [E226] | 120 nM | 1
37 | – | 184 °C | Cc1cc(-n2nc(Nc3ccc(F)c(C(F)(F)F)c3)nc2CCC(=O)N(C)C)cc(C)n1 [E233] | ~29.5 nM | –
38 | 616% | – | Cc1cc(-n2nc(Nc3cccc(Cl)c3F)nc2CCC(=O)N(C)C)cc(C)n1 [E265] | 37.2 nM | –
39 | – | 244 °C | CCNC(=O)C(C)c1nc(Nc2ccc3c(c2)OC(F)(F)O3)nn1-c1cc(C)nc(C)c1 (stereo not shown) [E275] | 1050 nM | 2
40 | – | 131.4 °C | Cc1cc(-n2nc(Nc3ccc(F)c(F)c3F)nc2C[C@H](C)O)ccn1 [E277] | 6310 nM | –
